Like-named read-outs stand apart in the source and are kept apart here.
Conditions: solid state
[1] = amber glass, away from light, t = 1 month
[2] = amber glass, away from light, t = 2 months
[3] = amber glass, away from light, t = 6 months
[4] = amber type II glass, away from light, t0, % area HPLC 240 nm
[5] = amber glass, away from light, t = 5 month
[6] = amber glass, away from light, t = 4 months

Experimental: The elution is carried out by gradient. The mobile phase consists of ammonium formiate buffer 100 mM pH 4.5 (eluent A) and acetonitrile (eluent B). The composition of the mobile phase was modified continuously during the elution process according to the following Table II:

Row | Structure (SMILES) | ICG purity (HPLC) [4] [%] | Total impurities (HPLC) [4] [%] | ICG purity (HPLC) (t = 8 weeks) [%] | Total impurities (HPLC) (t = 8 weeks) [%] | other results
1 | CC1(C)C(/C=C/C=C/C=C/C=C2\N(CCCCS(=O)(=O)[O-])c3ccc4ccccc4c3C2(C)C)=[N+](CCCCS(=O)(=O)[O-])c2ccc3ccccc3c21.[Na+] [Example 2, Indocyanine green] | 99.21 | 0.79 |  |  | ICG purity (HPLC) [1]: 99.25%; Total impurities (HPLC) [1]: 0.75%; ICG purity (HPLC) [2]: 99.09%; Total impurities (HPLC) [2]: 0.91%; ICG purity (HPLC) [3]: 99.03%; Total impurities (HPLC) [3]: 0.97%
2 | CC1(C)C(/C=C/C=C/C=C/C=C2\N(CCCCS(=O)(=O)[O-])c3ccc4ccccc4c3C2(C)C)=[N+](CCCCS(=O)(=O)[O-])c2ccc3ccccc3c21.[Na+] [Example 3, Indocyanine green] | 98.60 | 1.40 |  |  | ICG purity (HPLC) [1]: 98.39%; Total impurities (HPLC) [1]: 1.61%; ICG purity (HPLC) [5]: 97.95%; Total impurities (HPLC) [5]: 2.05%
3 | CC1(C)C(/C=C/C=C/C=C/C=C2\N(CCCCS(=O)(=O)[O-])c3ccc4ccccc4c3C2(C)C)=[N+](CCCCS(=O)(=O)[O-])c2ccc3ccccc3c21.[Na+] [Example 4, Indocyanine green] | 95.98 | 4.02 |  |  | ICG purity (HPLC) [6]: 94.11%; Total impurities (HPLC) [6]: 5.89%
4 | CC1(C)C(/C=C/C=C/C=C/C=C2\N(CCCCS(=O)(=O)[O-])c3ccc4ccccc4c3C2(C)C)=[N+](CCCCS(=O)(=O)[O-])c2ccc3ccccc3c21.[Na+] [NaBr, Indocyanine green] | 99.95 | 0.05 |  |  | ICG purity (HPLC) (t = 4 weeks): 99.84%; Total impurities (HPLC) (t = 4 weeks): 0.16%
5 | CC1(C)C(/C=C/C=C/C=C/C=C2\N(CCCCS(=O)(=O)[O-])c3ccc4ccccc4c3C2(C)C)=[N+](CCCCS(=O)(=O)[O-])c2ccc3ccccc3c21.[Na+] [NaOAc, Indocyanine green] | 99.95 | 0.05 | 99.65 | 0.35 | 
6 | CC1(C)C(/C=C/C=C/C=C/C=C2\N(CCCCS(=O)(=O)[O-])c3ccc4ccccc4c3C2(C)C)=[N+](CCCCS(=O)(=O)[O-])c2ccc3ccccc3c21.[Na+] [NaOAsc, Indocyanine green] | 99.95 | 0.05 | 99.72 | 0.28 | 
7 | CC1(C)C(/C=C/C=C/C=C/C=C2\N(CCCCS(=O)(=O)[O-])c3ccc4ccccc4c3C2(C)C)=[N+](CCCCS(=O)(=O)[O-])c2ccc3ccccc3c21.[Na+] [NaOEt, Indocyanine green] | 99.58 | 0.42 | 99.34 | 0.66 | 

Reference: patent US20250340739A1 ([…] SOLUTIONS, priority 2022, published 2025)
